From patent publication US7687054B2, “Biocompatible compounds for sustained release pharmaceutical drug delivery systems” (3M Innovative Properties Company, priority 1997, dated 2010) come the findings set out here.

Where a name gives a salt, the structure may show the parent alone. Read-outs that look alike come from different tables or passages of the source. Bounds are passed on as bounds.

The nature of data set [1]: Degradation temperature by modulated DSC (thermal stability). The method, then: (§1) Thermal properties (glass transition, melting, and degradation points; Tg, Tm, Tdeg) were determined utilizing a modulated differential scanning calorimeter (DSC) TA Instruments, New Castle, Del. A linear heating rate of 5° C./minute was applied, with a perturbation amplitude of ±1° C. every 60 seconds. […] The glass transition temperatures (Tg) reported were taken at the midpoint in the change in heat capacity over the step transition, and were evaluated using the reversing signal curve.
The salts were prepared by mixing suitable solutions (e.g., acetone, chloroform, methanol) of the drug and PLA in the desired ratio, followed by evaporation and extensive drying under high vacuum to remove all traces of solvent. […] Bioavailability frequently correlates with the water solubility of the drug-complex. The water solubility of the PHAs is dependent on the molecular weight and the nature of the end groups.
The molecular weight of the acylated polymer necessary to provide an insoluble salt is dependent both on the nature of the drug and the end-group used. It will be recognized that the characteristics (MW, distribution, chemical nature, endgroups, etc.) of the polymer counter-ion will be important to the ultimate pharmacokinetics of the drug.

The nature of data set [2]: Glass transition temperature (Tg) by modulated DSC. The format is physicochemical. The following applies: PLA/Drug mole/mole ratio 0 (drug alone). Here is the method: as §1
It will also be recognized that other biologically acceptable molecules (e.g., excipients) which are not the active agent, may be added to improve the matrix material's properties.

Data set [3] deals with antigen (ovalalbumin) challenged guinea pigs. In words: Guinea pig early phase anaphylactic response test (pulmonary dynamic compliance). The following applies: inhalation. It counts as in vivo, male Hartley guinea pigs. Here is the method:
Pat. […] Pat. […] Typical inhalation exposure systems were comprised of an aerosol generator, e.g., an MDI, a 150 ml aerosol expansion chamber, and a trachea cannula. Each guinea pig received 4 actuations containing 32 ug drug/actuation. The guinea pigs were antigen (ovalalbumin) challenged at varied times and pulmonary dynamic compliance was tested using a Buxco pulmonary mechanics analyzer (Buxco Electronics, Sharon Conn.) according to the method of Amdur and Mead (The American Journal of Physiology, Vol. 92, pp. 364-368 (1958)).

Data set [4] deals with tumor necrosis factor (TNF). The experiment in a line: TNF levels in lung lavage and serum after inhalation of IMQ MDI formulations. It counts as in vivo, mouse. Particulars: mice. Here is the method: Typically, the animals were exposed to 20 actuations per minute for 25 minutes of an MDI generated 2 micron average MMAD aerosol. Lung lavage and bleeding of the exposed mice, were performed by standard methods known to those skilled in the art and tumor necrosis factor (TNF) analyses were performed by an ELISA method specific for TNF in the mouse (Genzyme Immunobiologicals, Cambridge, Mass.). TNF is a marker for this drug's activity. Pulmonary therapy application of IMQ prefers drug activity localized in the lung. Therefore, it was desirable to maintain high levels of drug in the lung and minimize systemic drug. However, this formulation and method could also clearly be used to provide long term release of IMQ or analogous compounds for systemic applications. The lavage numbers are measurements of TNF levels in the lung while the serum levels measure systemic TNF levels.

Setting [5] is: PLA/Drug molar ratio 0 (drug alone).

Turning to `[H]/N=C(\N/C(=N/[H])NCCCCCCNC(=N)NC(=N)Nc1ccc(Cl)cc1)Nc1ccc(Cl)cc1` [Chlorhexidine base], the “Degradation Temperature” value in data set [1] (setting [5]) is above 225 °C. The Tg in data set [2] was found to be 38.5 °C.
Take `CN(C)[C@@H]1C(O)=C(C(N)=O)C(=O)[C@@]2(O)C(O)=C3C(=O)c4c(O)cccc4[C@@](C)(O)[C@H]3C[C@@H]12` [Tetracycline HCl]: the Tg in data set [2] was 50.5 °C.
As to `CCC(CC)N(O)C(=O)Nc1ccccc1` [Example 5LO], the “Percent Inhibition of Bronchoconstriction” value in data set [3] (challenge 15 minutes after dosing) was found to be 67%; in data set [3] (challenge 30 minutes after dosing), 48%; in data set [3] (challenge 60 minutes after dosing) it was 4%.
Consider `CCN(CC)CC(=O)Nc1c(C)cccc1C` [Lidocaine HCl], for which the Tg in data set [2] (HCl) worked out at 30.7 °C.
Regarding Albuterol sulfate, the Tg in data set [2] came out at 49 °C.
On to `CC(C)(C)NCC(O)c1ccc(O)c(CO)c1` (stereo not drawn) [Albuterol base], for which the Tg in data set [2] is 48.9 °C.
In the case of `Cc1nc2c(N)nc3ccccc3c2n1CC(C)(C)O` [IMQ alone], the “TNF level, Lavage” value came out at 40 pg/mL in data set [4] (0 hours after dosing), 105 pg/mL in data set [4] (1 hour after dosing), 213 pg/mL in data set [4] (2 hours after dosing) and 144 pg/mL in data set [4] (4 hours after dosing). Besides, the “TNF level, Serum” value was 13 pg/mL in data set [4] (0 hours after dosing), 6 pg/mL in data set [4] (1 hour after dosing), 193 pg/mL in data set [4] (2 hours after dosing) and 577 pg/mL in data set [4] (4 hours after dosing).
Consider `CN(C)[C@@H]1C(O)=C(C(N)=O)C(=O)[C@@]2(O)C(O)=C3C(=O)c4c(O)cccc4[C@@](C)(O)[C@H]3C[C@@H]12` [Tetracycline], for which, in data set [1] (setting [5]), the “Degradation Temperature” value is 179 °C.
On to acetyl-poly (L-lactic acid) [Example 7], for which, in data set [1], the “Degradation Temperature” value was above 225 °C.
Regarding `CCN(CC)CC(=O)Nc1c(C)cccc1C` [Lidocaine], in data set [1] (setting [5]), the “Degradation Temperature” value worked out at 159 °C. For the same compound, the Tg result in data set [2] is on record as “none”.
